Laboratory results as given in ChEMBL document CHEMBL4368864, “The transition to magic bullets - transition state analogue drug design” (Medchemcomm, 2018).
Blank lines part the entries; values can stand above or below the compound they belong to.

Columns and labels:
[1] = molecular target: T1, Purine nucleoside phosphorylase (Bos taurus, UniProt P55859); assay: Inhibition of bovine spleen PNP using inosine as substrate by xanthine oxidase coupled assay
T1 sequence (P55859 whole entry): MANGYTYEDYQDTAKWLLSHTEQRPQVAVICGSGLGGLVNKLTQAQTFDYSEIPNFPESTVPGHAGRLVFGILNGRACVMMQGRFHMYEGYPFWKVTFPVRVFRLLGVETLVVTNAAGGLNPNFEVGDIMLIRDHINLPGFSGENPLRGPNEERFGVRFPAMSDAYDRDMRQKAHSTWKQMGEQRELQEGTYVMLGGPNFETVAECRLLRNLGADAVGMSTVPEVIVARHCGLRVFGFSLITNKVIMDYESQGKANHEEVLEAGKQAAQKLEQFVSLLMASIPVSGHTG

[2] = molecular target: T2, Purine nucleoside phosphorylase (Homo sapiens, UniProt P00491); assay: Inhibition of human PNP using inosine as substrate by xanthine oxidase coupled assay
T2 sequence (P00491 whole entry): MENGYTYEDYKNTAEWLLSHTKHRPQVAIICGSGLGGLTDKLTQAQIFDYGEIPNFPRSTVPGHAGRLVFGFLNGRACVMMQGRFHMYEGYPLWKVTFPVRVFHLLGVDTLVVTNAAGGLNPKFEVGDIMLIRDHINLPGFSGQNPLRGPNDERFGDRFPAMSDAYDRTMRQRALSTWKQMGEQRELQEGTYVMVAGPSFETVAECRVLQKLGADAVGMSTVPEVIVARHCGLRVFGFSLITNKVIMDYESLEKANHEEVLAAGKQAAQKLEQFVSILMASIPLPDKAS

[3] = Inhibition of Crithidia fasciculata nucleoside hydrolase
[4] = molecular target: T2, Purine nucleoside phosphorylase; assay: Inhibition of human PNP
[5] = Oral bioavailability in mouse; format: ADME, organism-based; settings: in vivo

Ki [1]: 2600 nM
Ki [2]: 33 nM
SMILES: Nc1ncnc2c([C@@H]3N[C@H](CO)[C@@H](O)[C@H]3O)c[nH]c12

SMILES: OC[C@H]1N[C@@H](c2cnc[nH]2)[C@H](O)[C@@H]1O
Ki [3]: 2500 nM

Ki [3]: 170 nM
SMILES: OC[C@H]1N[C@@H](c2ccccc2)[C@H](O)[C@@H]1O

Ki [1]: 422000 nM
SMILES: O=c1[nH]ccn2c([C@@H]3N[C@H](CO)[C@@H](O)[C@H]3O)cnc12

Ki [4]: 91000 nM
SMILES: Nc1nc2c(ncn2COCCO)c(=O)[nH]1 [ACYCLOVIR]

SMILES: O=c1[nH]cnc2c([C@@H]3N[C@H](CO)[C@@H](O)[C@H]3O)c[nH]c12 [FORODESINE]
bioavailability [5]: 63%

Ki [3]: 10000 nM
SMILES: OC[C@H]1NC[C@H](O)[C@@H]1O [IMINORIBITOL]

Ki [3]: 380000 nM
SMILES: O=c1[nH]cnc2c1ncn2[C@@H]1O[C@H](CO)[C@@H](O)[C@H]1O [INOSINE]

SMILES: Nc1nc2c(Cc3cccnc3)c[nH]c2c(=O)[nH]1 [PELDESINE]
Ki [4]: 13.5 nM
